Source: ChEMBL document CHEMBL2010688, “Tri- and tetrasubstituted pyrazole derivates: regioisomerism switches activity from p38MAP kinase to important cancer kinases” (J Med Chem, 2012)
Active and inactive are the calls of the source. No cut-off for these calls is given here.

Assays:
[1] = molecular target: Mitogen-activated protein kinase 14 (Homo sapiens) (UniProt Q16539); test: Inhibition of p38alpha MAP kinase
[2] = molecular target: Vascular endothelial growth factor receptor 2 (Homo sapiens, UniProt P35968); test: Inhibition of VEGFR2 using poly(Glu,Tyr) as substrate assessed as [33P-gamma]-ATP incorporation after 60 mins by microplate scintillation counting
[3] = molecular target: Proto-oncogene tyrosine-protein kinase Src (Homo sapiens, UniProt P12931); test: Inhibition of SRC using poly(Glu,Tyr) as substrate assessed as [33P-gamma]-ATP incorporation after 60 mins by microplate scintillation counting
[4] = molecular target: Serine/threonine-protein kinase B-raf (Homo sapiens, UniProt P15056, V600E); test: Inhibition of BRAF V600E mutant using MEK1-KM as substrate assessed as [33P-gamma]-ATP incorporation after 60 mins by microplate scintillation counting
[5] = molecular target: Serine/threonine-protein kinase B-raf (Homo sapiens, UniProt P15056); test: Inhibition of wild type B-Raf using MEK1-KM as substrate assessed as [33P-gamma]-ATP incorporation after 60 mins by microplate scintillation counting
Serine/threonine-protein kinase B-raf (Homo sapiens, UniProt P15056), sequence (P15056 whole entry): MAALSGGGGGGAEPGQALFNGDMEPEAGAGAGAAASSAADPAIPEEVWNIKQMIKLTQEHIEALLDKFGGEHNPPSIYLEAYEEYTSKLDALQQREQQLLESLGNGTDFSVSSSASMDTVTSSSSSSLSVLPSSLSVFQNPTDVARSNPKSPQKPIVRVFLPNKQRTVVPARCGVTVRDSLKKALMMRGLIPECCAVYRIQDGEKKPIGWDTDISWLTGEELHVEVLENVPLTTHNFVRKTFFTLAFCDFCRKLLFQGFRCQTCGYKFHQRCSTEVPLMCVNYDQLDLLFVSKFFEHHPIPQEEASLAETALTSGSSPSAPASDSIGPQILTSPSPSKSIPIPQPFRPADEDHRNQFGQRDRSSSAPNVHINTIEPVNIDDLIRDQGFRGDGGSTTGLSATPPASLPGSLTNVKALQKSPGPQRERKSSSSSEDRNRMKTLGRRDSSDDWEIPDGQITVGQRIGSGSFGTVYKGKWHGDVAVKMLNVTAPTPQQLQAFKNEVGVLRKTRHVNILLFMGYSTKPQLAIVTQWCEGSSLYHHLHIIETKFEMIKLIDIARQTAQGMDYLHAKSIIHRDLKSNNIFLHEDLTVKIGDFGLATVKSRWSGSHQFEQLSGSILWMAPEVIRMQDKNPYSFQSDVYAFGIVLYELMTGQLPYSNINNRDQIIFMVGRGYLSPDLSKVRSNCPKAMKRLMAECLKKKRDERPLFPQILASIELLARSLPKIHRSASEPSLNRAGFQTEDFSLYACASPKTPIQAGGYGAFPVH

Proto-oncogene tyrosine-protein kinase Src, sequence (P12931 2-536 limits assumed): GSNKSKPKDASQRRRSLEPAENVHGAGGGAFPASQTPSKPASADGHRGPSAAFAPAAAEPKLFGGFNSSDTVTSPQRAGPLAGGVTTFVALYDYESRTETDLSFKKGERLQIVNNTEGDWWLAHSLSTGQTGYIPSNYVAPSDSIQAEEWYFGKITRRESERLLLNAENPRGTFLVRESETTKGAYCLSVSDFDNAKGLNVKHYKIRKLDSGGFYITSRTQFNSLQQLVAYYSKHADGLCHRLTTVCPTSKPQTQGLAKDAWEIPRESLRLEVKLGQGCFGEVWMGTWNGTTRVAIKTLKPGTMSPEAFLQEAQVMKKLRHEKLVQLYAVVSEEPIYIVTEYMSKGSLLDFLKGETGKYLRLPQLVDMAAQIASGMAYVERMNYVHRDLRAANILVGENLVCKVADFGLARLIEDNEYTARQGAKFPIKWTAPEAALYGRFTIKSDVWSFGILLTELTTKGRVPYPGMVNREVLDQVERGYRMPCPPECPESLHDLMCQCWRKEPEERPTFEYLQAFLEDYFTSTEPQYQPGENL
Serine/threonine-protein kinase B-raf (Homo sapiens, UniProt P15056, V600E), sequence (P15056 2-766 V600E limits assumed): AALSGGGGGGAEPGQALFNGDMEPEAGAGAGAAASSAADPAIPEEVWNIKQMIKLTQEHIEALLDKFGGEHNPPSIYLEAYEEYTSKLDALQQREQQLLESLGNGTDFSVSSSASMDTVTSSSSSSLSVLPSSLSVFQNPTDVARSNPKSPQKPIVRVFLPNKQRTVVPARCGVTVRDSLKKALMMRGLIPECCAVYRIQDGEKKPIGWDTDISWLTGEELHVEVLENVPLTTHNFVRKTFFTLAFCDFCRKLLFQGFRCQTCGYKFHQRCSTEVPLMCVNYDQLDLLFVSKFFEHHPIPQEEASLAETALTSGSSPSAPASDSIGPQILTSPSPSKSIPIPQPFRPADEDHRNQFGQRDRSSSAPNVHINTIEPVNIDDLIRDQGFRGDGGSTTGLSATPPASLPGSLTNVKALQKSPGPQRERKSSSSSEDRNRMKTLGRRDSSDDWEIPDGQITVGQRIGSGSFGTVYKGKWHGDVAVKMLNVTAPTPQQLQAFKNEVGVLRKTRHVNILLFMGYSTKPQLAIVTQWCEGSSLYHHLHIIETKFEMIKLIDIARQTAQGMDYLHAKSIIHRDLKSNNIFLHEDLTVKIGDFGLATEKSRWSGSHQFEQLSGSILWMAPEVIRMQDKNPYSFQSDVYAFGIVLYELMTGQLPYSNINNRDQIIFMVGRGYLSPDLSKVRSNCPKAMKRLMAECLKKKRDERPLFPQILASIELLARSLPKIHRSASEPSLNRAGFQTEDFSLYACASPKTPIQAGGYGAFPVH
Mitogen-activated protein kinase 14 (Homo sapiens), sequence (Q16539 whole entry): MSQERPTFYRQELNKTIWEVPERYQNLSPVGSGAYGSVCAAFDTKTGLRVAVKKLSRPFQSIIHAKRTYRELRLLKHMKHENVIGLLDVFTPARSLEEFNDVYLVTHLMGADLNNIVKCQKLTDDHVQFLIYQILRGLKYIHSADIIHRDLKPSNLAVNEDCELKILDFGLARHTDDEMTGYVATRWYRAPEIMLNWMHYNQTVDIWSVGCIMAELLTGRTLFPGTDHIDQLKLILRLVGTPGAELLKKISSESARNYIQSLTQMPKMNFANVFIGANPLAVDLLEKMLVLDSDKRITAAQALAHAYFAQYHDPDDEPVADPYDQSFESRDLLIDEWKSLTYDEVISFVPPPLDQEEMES
Vascular endothelial growth factor receptor 2, sequence (P35968 whole entry): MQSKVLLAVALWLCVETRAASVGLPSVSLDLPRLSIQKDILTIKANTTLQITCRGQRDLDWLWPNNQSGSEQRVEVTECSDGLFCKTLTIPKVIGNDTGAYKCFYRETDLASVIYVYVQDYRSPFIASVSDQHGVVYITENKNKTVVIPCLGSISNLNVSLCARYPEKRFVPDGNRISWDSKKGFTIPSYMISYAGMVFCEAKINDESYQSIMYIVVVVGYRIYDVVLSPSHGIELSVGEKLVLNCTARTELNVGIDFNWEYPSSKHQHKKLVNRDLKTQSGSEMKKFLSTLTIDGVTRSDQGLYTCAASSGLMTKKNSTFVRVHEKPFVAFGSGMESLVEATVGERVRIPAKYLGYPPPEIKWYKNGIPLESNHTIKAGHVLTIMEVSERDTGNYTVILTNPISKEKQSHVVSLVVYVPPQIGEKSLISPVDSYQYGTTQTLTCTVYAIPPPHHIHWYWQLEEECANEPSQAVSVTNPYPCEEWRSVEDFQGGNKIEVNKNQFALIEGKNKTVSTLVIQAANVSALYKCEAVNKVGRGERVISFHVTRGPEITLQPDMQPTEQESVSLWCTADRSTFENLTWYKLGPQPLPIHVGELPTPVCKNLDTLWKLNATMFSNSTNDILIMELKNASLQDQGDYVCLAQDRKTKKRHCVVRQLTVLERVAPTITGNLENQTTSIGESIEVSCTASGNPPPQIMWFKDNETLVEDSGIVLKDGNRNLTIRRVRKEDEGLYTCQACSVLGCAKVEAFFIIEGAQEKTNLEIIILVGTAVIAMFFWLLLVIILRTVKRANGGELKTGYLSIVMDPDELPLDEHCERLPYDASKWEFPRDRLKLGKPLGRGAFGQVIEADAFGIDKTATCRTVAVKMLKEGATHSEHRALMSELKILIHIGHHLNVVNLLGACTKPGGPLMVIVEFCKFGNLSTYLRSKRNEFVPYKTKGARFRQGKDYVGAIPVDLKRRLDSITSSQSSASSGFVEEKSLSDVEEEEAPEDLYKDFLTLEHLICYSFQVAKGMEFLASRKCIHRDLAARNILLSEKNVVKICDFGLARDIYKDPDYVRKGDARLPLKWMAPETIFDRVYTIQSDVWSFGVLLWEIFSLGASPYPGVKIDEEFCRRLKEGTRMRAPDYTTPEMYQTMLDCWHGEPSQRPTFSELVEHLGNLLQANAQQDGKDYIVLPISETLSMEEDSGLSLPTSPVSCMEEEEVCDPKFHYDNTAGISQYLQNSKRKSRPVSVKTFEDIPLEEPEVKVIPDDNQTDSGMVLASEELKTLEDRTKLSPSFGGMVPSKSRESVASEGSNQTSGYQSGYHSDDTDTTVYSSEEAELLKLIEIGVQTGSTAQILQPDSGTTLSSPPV

Row | Structure (SMILES) | inhibition [1] | IC50 [2] [nM] | IC50 [3] [nM] | IC50 [4] [nM] | IC50 [5] [nM]
1 | CCOC(=O)c1c(-c2ccncc2)nn(-c2c(Cl)cc(Cl)cc2Cl)c1N | inactive | > 100000 | > 100000 | > 100000 | 
2 | Fc1ccc(-c2cn(-c3c(Cl)cc(Cl)cc3Cl)nc2-c2ccncc2)cc1 | inactive | 210 | 2000 | 2500 | 
3 | N#Cc1ccc(-n2nc(-c3ccncc3)c(-c3ccc(F)cc3)c2N)cc1 | inactive |  | > 100000 |  | 
4 | NC(=O)c1c(-c2ccncc2)nn(-c2ccccc2)c1N | inactive |  |  |  | 
5 | Nc1c(-c2ccc(F)cc2)c(-c2ccncc2)nn1-c1ccccc1 | inactive |  |  |  | 
6 | Nc1c(-c2ccc(F)cc2)c(-c2ccncc2)nn1-c1ccc(C(F)(F)F)cc1 | inactive | 2400 | 6700 | 1500 | 
7 | Cc1ccc(-n2nc(-c3ccncc3)c(-c3ccc(F)cc3)c2N)cc1 | inactive | 2600 | 53000 | 890 | 
8 | Nc1c(-c2ccc(F)cc2)c(-c2ccncc2)nn1-c1c(Cl)cc(Cl)cc1Cl | inactive | 34 | 399 | 592 | 270
9 | Nc1c(-c2ccc(F)cc2)c(-c2ccncc2)nn1-c1ccc(Cl)cc1 | inactive | 1200 | 23000 | 800 | 
10 | COc1ccc(-n2nc(-c3ccncc3)c(-c3ccc(F)cc3)c2N)cc1 | inactive |  |  |  | 
11 | NC(=O)c1c(-c2ccncc2)nn(-c2c(Cl)cc(Cl)cc2Cl)c1N | inactive |  |  | > 100000 | 
12 | Nc1cc(-c2ccncc2)nn1-c1c(Cl)cc(Cl)cc1Cl | inactive |  | > 100000 | > 100000 | 
13 | Fc1ccc(-c2cn(-c3ccc(C(F)(F)F)cc3)nc2-c2ccncc2)cc1 | inactive |  |  |  | 
14 | Nc1c(-c2ccc(F)cc2)c(-c2ccncc2)nn1-c1ccc([N+](=O)[O-])cc1 | inactive | 1400 | 82000 | 1400 | 
15 | Nc1c(C(=O)O)c(-c2ccncc2)nn1-c1c(Cl)cc(Cl)cc1Cl | inactive |  |  | > 100000 | 
